“And” between values parts separate entries of the source, which are not always exact repeats. Equal entries are not always repeated. ± gives the expanded uncertainty stated by the source.
Assay: osmotic coefficient (dimensionless); mn = molality of the nth substance listed, in mol/kg
Settings: 298.15 K, 101 kPa, Liquid
[1] = commercial osmometer Gonotec 070, m1 = 0.5
[2] = commercial osmometer Gonotec 070, m1 = 1
[3] = commercial osmometer Knauer K-7000, m1 = 1
[4] = commercial osmometer Knauer K-7000, m1 = 3

SMILES | osmotic coefficient [1] | osmotic coefficient [2] | osmotic coefficient [3] | osmotic coefficient [4]
O=S(=O)([O-])[O-].[Na+].[Na+] [sodium sulfate] + O | 0.717 and 0.69 | 0.658 and 0.642 |  | 
[I-].[Li+] [lithium iodide] + O | 1 and 1.01 | 1.07 and 1.01 |  | 
O=[N+]([O-])[O-].[K+] [potassium nitrate] + O |  |  | 0.746 and 0.744 and 0.747 | 0.599 and 0.597 and 0.598
[Br-].[Na+] [sodium bromide] + O | 0.953 and 0.934 | 0.959 and 0.971 |  | 
N.N.O=S(=O)(O)O [ammonium sulfate] + O |  |  | 0.643 and 0.64 and 0.641 | 0.629 and 0.627 and 0.625
[I-].[K+] [potassium iodide] + O | 0.916 and 0.923 | 0.934 and 0.927 |  | 
[Br-].[K+] [potassium bromide] + O | 0.907 and 0.905 | 0.919 and 0.917 |  | 
[Cl-].[Li+] [lithium chloride] + O | 0.928 and 0.955 | 0.987 and 0.978 |  | 
[Br-].[Li+] [lithium bromide] + O | 0.978 and 0.97 | 1.03 and 1.04 |  | 
O=[N+]([O-])[O-].[Na+] [sodium nitrate] + O | 0.895 and 0.874 | 0.865 and 0.867 | 0.854 and 0.859 | 0.805 and 0.806
[Cl-].[K+] [potassium chloride] + O | 0.905 ± 0.011 | 0.915 ± 0.01 | 0.895 and 0.897 | 0.938 and 0.935 and 0.936
[Cl-].[Na+] [sodium chloride] + O |  |  | 0.927 and 0.925 | 1.05
[I-].[Na+] [sodium iodide] + O | 0.955 and 0.95 | 0.985 and 1 |  | 
